Tests used:
JAK3 = JAK3 (Homo sapiens (Human), UniProt P52333); experiment: Biochemical JAK kinase assay (LanthaScreen), JAK3; conditions: read-out: JAK3 pKi (converted)
Method: A panel of four LanthaScreen JAK biochemical assays (JAK1, 2, 3 and Tyk2) were carried in a common kinase reaction buffer (50 mM HEPES, pH 7.5, 0.01% Brij-35, 10 mM MgCl2, and 1 mM EGTA). Recombinant GST-tagged JAK enzymes and a GFP-tagged STAT1 peptide substrate were obtained from Life Technologies.
Serially diluted compounds were pre-incubated with each of the four JAK enzymes and the substrate in white 384-well microplates (Corning) at ambient temperature for 1 h. ATP was subsequently added to initiate the kinase reactions in 10 μL total volume, with 1% DMSO. The final enzyme concentrations for JAK1, 2, 3 and Tyk2 are 4.2 nM, 0.1 nM, 1 nM, and 0.25 nM respectively; the corresponding Km ATP concentrations used are 25 μM, 3 μM, 1.6 μM, and 10 μM; while the substrate concentration is 200 nM for all four assays. Kinase reactions were allowed to proceed for 1 hour at ambient temperature before a 10 μL preparation of EDTA (10 mM final concentration) and Tb-anti-pSTAT1 (pTyr701) antibody (Life Technologies, 2 nM final concentration) in TR-FRET dilution buffer (Life Technologies) was added. The plates were allowed to incubate at ambient temperature for 1 h before being read on the EnVision reader (Perkin Elmer). Emission ratio signals (520 nm/495 nm) were recorded and utilized to calculate the percent inhibition values based on DMSO and background controls.
For dose-response analysis, percent inhibition data were plotted vs. compound concentrations, and IC50 values were determined from a 4-parameter robust fit model with the Prism software (GraphPad Software). Results were expressed as pIC50 (negative logarithm of IC50) and subsequently converted to pKi (negative logarithm of dissociation constant, Ki) using the Cheng-Prusoff equation.
Test compounds having a lower Ki value or higher pKi value in the four JAK assays show greater inhibition of JAK activity.

JAK1 = JAK1 (Homo sapiens (Human), UniProt P23458); experiment: Biochemical JAK kinase assay (LanthaScreen), JAK1; conditions: for Ki: read-out: JAK1 pKi (converted)
Summary of the method: (§1)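 LanthaScreen format: phospho-STAT1 (pTyr701) detected with 2 nM Tb antibody after 10 mM EDTA quench. Kinase step used Km-level ATP and 200 nM STAT1 peptide, 1 h at ambient after 1 h pre-incubation. Inhibition fitted to IC50, reported as pKi.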

[1] = test system: IL-13 induced STAT6 phosphorylation in BEAS-2B human lung epithelial cells; experiment: Cellular JAKI potency assay (BEAS-2B); assay type: cell-based; conditions: Homo sapiens, BEAS-2B, BEAS-2B cells, read-out: BEAS2B pIC50 (converted)
Summary of the method: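 AlphaLISA SureFire detection of Tyr641 pSTAT6 in lysates gave IC50s (4-parameter fit, expressed as pIC50). Cells: human BEAS-2B, exposed 1 h at 37 °C to compound dose series at 0.1% DMSO, then 30 min to IL-13 added at 80 ng/mL in HEPES-buffered HBSS with BSA.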

JAK2 = JAK2 (Homo sapiens (Human), UniProt O60674); experiment: Biochemical JAK kinase assay (LanthaScreen), JAK2; conditions: for Ki: read-out: JAK2 pKi (converted)
Summary of the method: as §1

TYK2 = TYK2 (Homo sapiens (Human), UniProt P29597); experiment: Biochemical JAK kinase assay (LanthaScreen), Tyk2; conditions: read-out: Tyk2 pKi (converted)
Summary of the method: as §1

Sequence of JAK1 (P23458 whole entry): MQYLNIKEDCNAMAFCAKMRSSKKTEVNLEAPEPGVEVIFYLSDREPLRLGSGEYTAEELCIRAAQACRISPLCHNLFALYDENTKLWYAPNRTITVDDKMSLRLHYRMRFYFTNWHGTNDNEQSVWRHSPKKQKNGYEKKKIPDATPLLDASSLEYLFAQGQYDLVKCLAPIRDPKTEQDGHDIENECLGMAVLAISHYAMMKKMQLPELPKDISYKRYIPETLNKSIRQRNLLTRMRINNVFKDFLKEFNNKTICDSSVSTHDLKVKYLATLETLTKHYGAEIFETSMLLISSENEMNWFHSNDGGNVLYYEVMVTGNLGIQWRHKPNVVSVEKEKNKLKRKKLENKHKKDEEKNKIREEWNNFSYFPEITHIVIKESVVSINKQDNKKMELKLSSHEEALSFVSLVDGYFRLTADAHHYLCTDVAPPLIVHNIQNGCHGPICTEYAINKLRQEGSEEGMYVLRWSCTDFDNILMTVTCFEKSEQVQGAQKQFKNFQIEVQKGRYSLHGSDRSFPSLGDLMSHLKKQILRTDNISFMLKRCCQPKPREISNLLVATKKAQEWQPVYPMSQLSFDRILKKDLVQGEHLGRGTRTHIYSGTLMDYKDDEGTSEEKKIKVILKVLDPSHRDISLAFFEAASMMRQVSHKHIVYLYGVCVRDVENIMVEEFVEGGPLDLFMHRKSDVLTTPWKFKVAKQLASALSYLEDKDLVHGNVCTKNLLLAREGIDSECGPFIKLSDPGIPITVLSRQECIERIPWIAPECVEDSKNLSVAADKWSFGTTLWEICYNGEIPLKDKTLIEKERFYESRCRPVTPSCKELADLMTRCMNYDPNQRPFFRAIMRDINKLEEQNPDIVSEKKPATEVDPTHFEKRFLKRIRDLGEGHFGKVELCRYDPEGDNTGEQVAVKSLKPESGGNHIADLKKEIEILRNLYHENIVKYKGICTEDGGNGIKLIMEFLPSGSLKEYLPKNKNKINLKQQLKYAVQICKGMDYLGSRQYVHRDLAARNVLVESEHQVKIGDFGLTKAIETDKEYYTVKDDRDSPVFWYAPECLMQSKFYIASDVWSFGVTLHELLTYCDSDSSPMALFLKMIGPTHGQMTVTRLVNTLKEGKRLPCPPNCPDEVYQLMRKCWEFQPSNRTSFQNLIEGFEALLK
Sequence of JAK3 (P52333 whole entry): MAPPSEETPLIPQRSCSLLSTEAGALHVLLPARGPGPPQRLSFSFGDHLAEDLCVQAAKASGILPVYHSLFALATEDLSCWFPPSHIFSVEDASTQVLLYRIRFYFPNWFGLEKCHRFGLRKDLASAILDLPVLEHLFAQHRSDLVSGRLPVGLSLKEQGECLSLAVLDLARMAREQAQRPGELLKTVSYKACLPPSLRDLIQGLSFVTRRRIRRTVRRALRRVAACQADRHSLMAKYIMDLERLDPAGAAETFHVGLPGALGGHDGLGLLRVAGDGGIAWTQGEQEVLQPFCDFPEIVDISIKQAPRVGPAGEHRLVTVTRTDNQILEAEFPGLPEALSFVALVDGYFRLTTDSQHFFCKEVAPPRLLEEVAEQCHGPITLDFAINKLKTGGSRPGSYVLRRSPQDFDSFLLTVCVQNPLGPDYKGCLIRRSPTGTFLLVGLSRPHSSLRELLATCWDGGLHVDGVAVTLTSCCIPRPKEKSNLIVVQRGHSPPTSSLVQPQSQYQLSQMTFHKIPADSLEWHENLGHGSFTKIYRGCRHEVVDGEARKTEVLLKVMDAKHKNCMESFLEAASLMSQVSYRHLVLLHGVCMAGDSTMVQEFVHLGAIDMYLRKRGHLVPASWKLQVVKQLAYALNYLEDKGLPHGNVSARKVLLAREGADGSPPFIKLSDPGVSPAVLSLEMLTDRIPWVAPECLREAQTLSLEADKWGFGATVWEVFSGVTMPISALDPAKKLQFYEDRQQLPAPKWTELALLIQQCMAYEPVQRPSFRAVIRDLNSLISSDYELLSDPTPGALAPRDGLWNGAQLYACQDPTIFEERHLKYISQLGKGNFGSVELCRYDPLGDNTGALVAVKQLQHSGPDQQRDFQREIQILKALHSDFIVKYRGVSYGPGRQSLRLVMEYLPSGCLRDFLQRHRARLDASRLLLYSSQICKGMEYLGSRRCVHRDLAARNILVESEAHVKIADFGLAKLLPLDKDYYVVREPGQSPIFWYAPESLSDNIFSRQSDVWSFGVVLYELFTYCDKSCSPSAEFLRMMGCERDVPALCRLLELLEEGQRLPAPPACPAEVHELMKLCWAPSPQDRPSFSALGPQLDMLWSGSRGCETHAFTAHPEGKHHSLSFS
Sequence of TYK2 (P29597 whole entry): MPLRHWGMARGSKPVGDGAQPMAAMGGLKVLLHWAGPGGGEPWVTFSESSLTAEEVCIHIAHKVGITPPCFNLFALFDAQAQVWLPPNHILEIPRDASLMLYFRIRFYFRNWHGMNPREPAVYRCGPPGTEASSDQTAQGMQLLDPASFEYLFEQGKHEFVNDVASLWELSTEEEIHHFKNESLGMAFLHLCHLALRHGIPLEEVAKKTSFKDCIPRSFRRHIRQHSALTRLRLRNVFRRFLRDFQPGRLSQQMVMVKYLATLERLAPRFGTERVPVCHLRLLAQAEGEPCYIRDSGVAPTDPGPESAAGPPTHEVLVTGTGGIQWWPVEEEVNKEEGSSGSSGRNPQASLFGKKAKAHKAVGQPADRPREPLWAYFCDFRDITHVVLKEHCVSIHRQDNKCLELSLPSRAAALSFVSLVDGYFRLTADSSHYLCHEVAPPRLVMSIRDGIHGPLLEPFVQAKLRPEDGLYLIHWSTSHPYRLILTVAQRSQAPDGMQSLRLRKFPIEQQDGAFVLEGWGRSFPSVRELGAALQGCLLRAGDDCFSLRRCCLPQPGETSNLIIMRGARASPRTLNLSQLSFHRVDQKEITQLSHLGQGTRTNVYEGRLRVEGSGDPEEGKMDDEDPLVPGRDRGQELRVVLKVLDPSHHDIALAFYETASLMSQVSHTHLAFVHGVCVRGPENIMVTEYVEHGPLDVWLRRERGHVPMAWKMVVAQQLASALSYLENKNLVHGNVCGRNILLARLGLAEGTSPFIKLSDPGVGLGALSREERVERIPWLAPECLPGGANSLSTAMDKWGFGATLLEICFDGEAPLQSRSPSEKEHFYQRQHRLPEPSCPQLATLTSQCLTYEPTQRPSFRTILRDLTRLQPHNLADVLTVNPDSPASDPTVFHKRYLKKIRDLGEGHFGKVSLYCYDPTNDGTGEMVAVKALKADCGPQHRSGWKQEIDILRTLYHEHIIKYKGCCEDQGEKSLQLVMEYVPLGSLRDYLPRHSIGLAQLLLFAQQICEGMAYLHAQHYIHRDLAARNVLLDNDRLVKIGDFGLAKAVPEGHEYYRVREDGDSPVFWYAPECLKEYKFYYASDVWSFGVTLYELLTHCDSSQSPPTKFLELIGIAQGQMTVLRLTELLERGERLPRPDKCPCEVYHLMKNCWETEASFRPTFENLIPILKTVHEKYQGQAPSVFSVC
Sequence of JAK2 (O60674 whole entry): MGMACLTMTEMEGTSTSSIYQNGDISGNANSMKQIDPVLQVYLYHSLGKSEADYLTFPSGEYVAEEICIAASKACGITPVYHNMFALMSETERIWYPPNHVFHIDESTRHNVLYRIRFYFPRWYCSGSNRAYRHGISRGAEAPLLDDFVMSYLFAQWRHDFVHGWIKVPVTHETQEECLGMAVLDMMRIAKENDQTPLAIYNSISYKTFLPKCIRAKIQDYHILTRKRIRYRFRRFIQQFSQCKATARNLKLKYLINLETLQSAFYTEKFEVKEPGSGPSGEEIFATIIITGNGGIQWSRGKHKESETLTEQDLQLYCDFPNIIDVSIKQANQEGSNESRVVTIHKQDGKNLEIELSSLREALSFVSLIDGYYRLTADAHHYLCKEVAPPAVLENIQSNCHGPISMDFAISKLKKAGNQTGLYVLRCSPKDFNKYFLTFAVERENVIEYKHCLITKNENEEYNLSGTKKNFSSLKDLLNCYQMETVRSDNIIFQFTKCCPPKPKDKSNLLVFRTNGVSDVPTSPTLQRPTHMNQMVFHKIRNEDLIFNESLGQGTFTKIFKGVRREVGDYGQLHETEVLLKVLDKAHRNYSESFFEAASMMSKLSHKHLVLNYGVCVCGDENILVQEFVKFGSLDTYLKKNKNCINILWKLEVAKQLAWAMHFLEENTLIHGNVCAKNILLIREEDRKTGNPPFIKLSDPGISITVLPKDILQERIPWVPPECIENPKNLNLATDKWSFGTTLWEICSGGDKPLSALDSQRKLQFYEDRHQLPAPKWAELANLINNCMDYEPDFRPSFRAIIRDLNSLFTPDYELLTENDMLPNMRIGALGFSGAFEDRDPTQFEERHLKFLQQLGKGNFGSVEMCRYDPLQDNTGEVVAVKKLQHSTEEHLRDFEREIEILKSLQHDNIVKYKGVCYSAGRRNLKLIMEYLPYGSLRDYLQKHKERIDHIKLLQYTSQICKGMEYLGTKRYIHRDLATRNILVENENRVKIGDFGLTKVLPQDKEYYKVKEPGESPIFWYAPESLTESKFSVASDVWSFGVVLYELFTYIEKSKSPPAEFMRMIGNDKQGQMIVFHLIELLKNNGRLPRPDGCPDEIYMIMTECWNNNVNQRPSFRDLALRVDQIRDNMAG

Row | SMILES | Ki (JAK3) | Ki (JAK1) | IC50 [1] | JAK2 pKi (JAK2) | Ki (TYK2) | Ki (JAK2) | JAK1 pKi (JAK1)
1 | CCc1cc(O)ccc1-c1ccc2c(-c3nc(C4=CCN(CCN(C)C)C4)c[nH]3)n[nH]c2c1F [Example 220] | 0.1 to 1 nM | 0.1 to 1 nM | 10 to 31.6 nM | A (A represents a pKi value ≥10 (Ki≤0.1 nM)) | 1 to 10 nM | – | –
2 | CCc1cc(O)ccc1-c1ccc2c(-c3nc(C4=CCNCC4C)c[nH]3)n[nH]c2c1 (stereo not drawn) [Example 298] | 0.1 to 1 nM | 0.1 to 1 nM | 10 to 31.6 nM | – | 0.1 to 1 nM | 0.1 to 1 nM | –
3 | CCc1cc(O)ccc1-c1ccc2c(-c3nc(C4=CCN(C(C)C)CC4)c[nH]3)n[nH]c2c1 [Example 20] | 0.1 to 1 nM | – | 3.16 to 10 nM | A (A represents a pKi value ≥10 (Ki≤0.1 nM)) | 1 to 10 nM | – | A (A represents a pKi value ≥10 (Ki≤0.1 nM))
4 | CCc1cc(O)ccc1-c1ccc2c(-c3nc(C4=CCCN(CCCO)C4)c[nH]3)n[nH]c2c1 [Example 42] | 0.1 to 1 nM | – | 3.16 to 10 nM | A (A represents a pKi value ≥10 (Ki≤0.1 nM)) | 1 to 10 nM | – | A (A represents a pKi value ≥10 (Ki≤0.1 nM))
5 | CCc1cc(O)ccc1-c1ccc2c(-c3nc(C4=CCN(C)C4)c[nH]3)n[nH]c2c1F [Example 31] | 0.1 to 1 nM | 0.1 to 1 nM | 3.16 to 10 nM | – | 1 to 10 nM | 0.1 to 1 nM | –
6 | CCc1cc(O)ccc1-c1ccc2c(-c3nc(C4=C(C)CNCC4)c[nH]3)n[nH]c2c1 [Example 224] | 0.1 to 1 nM | 0.1 to 1 nM | 3.16 to 10 nM | – | 1 to 10 nM | 0.1 to 1 nM | –
7 | CCc1cc(O)ccc1-c1ccc2c(-c3nc(C4=CCCN(C)C4)c[nH]3)n[nH]c2c1 [Example 27] | 0.1 to 1 nM | – | 3.16 to 10 nM | A (A represents a pKi value ≥10 (Ki≤0.1 nM)) | 1 to 10 nM | – | A (A represents a pKi value ≥10 (Ki≤0.1 nM))
8 | CCOC[C@H]1C=C(c2c[nH]c(-c3n[nH]c4c(F)c(-c5ccc(O)cc5CC)ccc34)n2)CN1 [Example 307] | 0.1 to 1 nM | 0.1 to 1 nM | 10 to 31.6 nM | – | 1 to 10 nM | 0.1 to 1 nM | –
9 | CCc1cc(O)ccc1-c1ccc2c(-c3nc(C4=CCCN(C5CCN(C)CC5)C4)c[nH]3)n[nH]c2c1F [Example 194] | 0.1 to 1 nM | 0.1 to 1 nM | 10 to 31.6 nM | – | 1 to 10 nM | 0.1 to 1 nM | –
10 | CCc1cc(O)ccc1-c1ccc2c(-c3nc(C4=CCN(CCO)C4)c[nH]3)n[nH]c2c1 [Example 50] | 0.1 to 1 nM | – | 3.16 to 10 nM | A (A represents a pKi value ≥10 (Ki≤0.1 nM)) | 0.1 to 1 nM | – | A (A represents a pKi value ≥10 (Ki≤0.1 nM))
11 | CCc1cc(O)ccc1-c1ccc2c(-c3nc(C4=CCN(C5COC5)C4)c[nH]3)n[nH]c2c1F [Example 75] | 0.1 to 1 nM | 0.1 to 1 nM | 10 to 31.6 nM | – | 1 to 10 nM | 0.1 to 1 nM | –
12 | CCc1cc(O)ccc1-c1ccc2c(-c3nc(C4=CCN(C5CCN(C)C5)CC4)c[nH]3)n[nH]c2c1F (stereo not drawn) [Example 208] | 0.1 to 1 nM | 0.1 to 1 nM | 10 to 31.6 nM | A (A represents a pKi value ≥10 (Ki≤0.1 nM)) | 1 to 10 nM | – | –
13 | CCc1cc(O)ccc1-c1ccc2c(-c3nc(C4=CC[C@H](C)NC4)c[nH]3)n[nH]c2c1 [Example 230] | 0.1 to 1 nM | – | 3.16 to 10 nM | A (A represents a pKi value ≥10 (Ki≤0.1 nM)) | 1 to 10 nM | – | A (A represents a pKi value ≥10 (Ki≤0.1 nM))
14 | CCc1cc(O)ccc1-c1ccc2c(-c3nc(C4=CCCN(C5CN(C)C5)C4)c[nH]3)n[nH]c2c1F [Example 195] | 0.1 to 1 nM | 0.1 to 1 nM | 31.6 to 100 nM | – | 1 to 10 nM | 0.1 to 1 nM | –
15 | CCc1cc(O)ccc1-c1ccc2c(-c3nc(C4=CCN(C(=O)[C@@H](N)C(C)(C)O)C4)c[nH]3)n[nH]c2c1F [Example 174] | 0.1 to 1 nM | 0.1 to 1 nM | 10 to 31.6 nM | – | 1 to 10 nM | 0.1 to 1 nM | –

Source: patent US20240092758A1, “IMIDAZOLO INDAZOLE COMPOUNDS AS JAK INHIBITORS” (Theravance Biopharma R&D IP, LLC, priority 2021, published 2024)
